From US7060699B2, “Aryl and heteroaryl diazabicycloalkanes, their preparation and use” (priority 2000, dated 2006)
Like-named read-outs stand apart in the source and are kept apart here.

Columns and labels:
serotonin transporter = target: T1, serotonin transporter (Rattus norvegicus, UniProt P31652); experiment: In vitro inhibition of 3H-5-hydroxytryptamine (3H-5-HT, serotonin) uptake in cortical synaptosomes; format: biochemical
T1 construct: Cerebral cortices from male Wistar rats (150–200 g) are homogenized; from tissue; host or cells: rat cerebral cortex synaptosomes (P2 pellet)
Description: In Vitro Inhibition of ^3H-5-hydroxytryptamine (^3H-5-HT, Serotonin) Uptake in Cortical Synaptosomes
Serotonin transporters/uptake sites on nerve terminals presumably function to terminate neuronal signaling by removing serotonin from the synaptic cleft. The activity of the serotonin transporter integral protein can be measured in vitro by synaptosomal uptake of ^3H-5-hydroxytryptamine.
Preparations are performed at 0–4° C. unless otherwise indicated. Cerebral cortices from male Wistar rats (150–200 g) are homogenized for 5–10 sec in 100 volumes of ice-cold 0.32M sucrose containing 1 mM pargyline using a motor driven teflon pestle in a glass homogenizing vessel. Monoamine oxidase activity will be inhibited in the presence of pargyline. The homogenate is centrifuged at 1000×g for 10 min. The resulting supernatant is then centrifuged at 27,000×g for 50 min and the supernatant is discarded.
Aliquots of 4.0 ml tissue suspension are added to 100 µl of test solution and 100 μl of ^3H-5-HT (1 nM, final concentration), mixed and incubated for 30 min at 37° C. Non-specific uptake is determined using citalopram (1 μM, final concentration). After incubation the samples are poured directly onto Whatman GF/C glass fibre filters under suction. The filters are then washed three times with 5 ml of ice-cold 0.9% (w/v) NaCl solution. The amount of radioactivity on the filters is determined by conventional liquid scintillation counting. Specific uptake is calculated as the difference between total uptake and non-specific uptake.
where C0 is specific binding in control assays and Cx is the specific binding in the test assay (the calculations assume normal mass-action kinetics).

[1] = target: nAChR comprised of α4 and β2 subunits (Rattus norvegicus, UniProt P09483+P12390); experiment: In vitro inhibition of 3H-cytisine binding
[2] = target: nAChR formed by the α7 subunit isoform (Rattus norvegicus, UniProt Q05941); experiment: biochemical; format: binding
[3] = cerebral cortex homogenate from male Wistar rats, 3H-cytisine 1 nM, 90 min at 2° C., read-out: 3H-cytisine binding IC50

T1 sequence (P31652 whole entry): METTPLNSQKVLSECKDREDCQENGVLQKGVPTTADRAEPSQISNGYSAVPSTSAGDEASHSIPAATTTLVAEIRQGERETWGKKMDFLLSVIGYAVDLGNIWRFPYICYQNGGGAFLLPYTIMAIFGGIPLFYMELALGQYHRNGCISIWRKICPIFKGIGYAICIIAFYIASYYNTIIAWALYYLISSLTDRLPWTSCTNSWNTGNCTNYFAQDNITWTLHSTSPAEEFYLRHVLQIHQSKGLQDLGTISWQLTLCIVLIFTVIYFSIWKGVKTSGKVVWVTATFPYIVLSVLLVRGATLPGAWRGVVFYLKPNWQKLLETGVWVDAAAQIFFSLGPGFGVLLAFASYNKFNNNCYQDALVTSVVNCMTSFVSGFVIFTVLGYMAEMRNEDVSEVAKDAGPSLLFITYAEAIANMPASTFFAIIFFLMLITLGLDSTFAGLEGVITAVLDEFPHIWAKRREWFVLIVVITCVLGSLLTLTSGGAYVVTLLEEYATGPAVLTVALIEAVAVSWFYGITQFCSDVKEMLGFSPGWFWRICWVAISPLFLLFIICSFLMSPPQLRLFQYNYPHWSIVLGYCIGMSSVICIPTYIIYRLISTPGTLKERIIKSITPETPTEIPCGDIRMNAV
Sequence of nAChR formed by the α7 subunit isoform (Q05941 23-502): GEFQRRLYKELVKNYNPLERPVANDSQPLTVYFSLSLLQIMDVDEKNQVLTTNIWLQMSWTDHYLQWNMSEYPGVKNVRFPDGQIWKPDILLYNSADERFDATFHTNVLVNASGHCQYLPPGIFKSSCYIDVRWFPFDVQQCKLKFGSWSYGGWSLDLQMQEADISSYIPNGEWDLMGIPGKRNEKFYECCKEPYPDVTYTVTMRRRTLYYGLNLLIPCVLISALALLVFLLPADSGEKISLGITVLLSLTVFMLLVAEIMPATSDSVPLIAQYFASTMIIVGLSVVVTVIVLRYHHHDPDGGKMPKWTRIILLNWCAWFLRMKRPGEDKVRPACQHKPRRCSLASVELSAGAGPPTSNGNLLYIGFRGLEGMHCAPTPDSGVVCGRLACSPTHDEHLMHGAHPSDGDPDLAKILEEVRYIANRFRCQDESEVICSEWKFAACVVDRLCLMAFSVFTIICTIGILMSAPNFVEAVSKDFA
Sequence of nAChR comprised of α4 and β2 subunits (P09483 31-630): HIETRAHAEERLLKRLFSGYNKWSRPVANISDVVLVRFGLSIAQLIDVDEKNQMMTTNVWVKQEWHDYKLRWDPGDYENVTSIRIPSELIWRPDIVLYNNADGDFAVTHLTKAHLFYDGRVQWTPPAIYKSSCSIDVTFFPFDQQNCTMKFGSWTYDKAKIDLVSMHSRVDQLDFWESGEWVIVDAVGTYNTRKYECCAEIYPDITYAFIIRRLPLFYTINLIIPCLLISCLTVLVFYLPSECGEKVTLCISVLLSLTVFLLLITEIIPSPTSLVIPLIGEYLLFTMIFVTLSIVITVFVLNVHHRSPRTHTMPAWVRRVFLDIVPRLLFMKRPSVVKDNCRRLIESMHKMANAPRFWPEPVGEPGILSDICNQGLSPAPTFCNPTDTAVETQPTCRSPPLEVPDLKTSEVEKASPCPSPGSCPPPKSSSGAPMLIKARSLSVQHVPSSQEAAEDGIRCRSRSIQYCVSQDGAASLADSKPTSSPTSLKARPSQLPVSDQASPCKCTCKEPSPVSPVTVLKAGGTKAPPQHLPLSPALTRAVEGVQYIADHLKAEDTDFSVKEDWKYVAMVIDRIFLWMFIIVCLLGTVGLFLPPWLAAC
Sequence of nAChR comprised of α4 and β2 subunits (P12390 25-500): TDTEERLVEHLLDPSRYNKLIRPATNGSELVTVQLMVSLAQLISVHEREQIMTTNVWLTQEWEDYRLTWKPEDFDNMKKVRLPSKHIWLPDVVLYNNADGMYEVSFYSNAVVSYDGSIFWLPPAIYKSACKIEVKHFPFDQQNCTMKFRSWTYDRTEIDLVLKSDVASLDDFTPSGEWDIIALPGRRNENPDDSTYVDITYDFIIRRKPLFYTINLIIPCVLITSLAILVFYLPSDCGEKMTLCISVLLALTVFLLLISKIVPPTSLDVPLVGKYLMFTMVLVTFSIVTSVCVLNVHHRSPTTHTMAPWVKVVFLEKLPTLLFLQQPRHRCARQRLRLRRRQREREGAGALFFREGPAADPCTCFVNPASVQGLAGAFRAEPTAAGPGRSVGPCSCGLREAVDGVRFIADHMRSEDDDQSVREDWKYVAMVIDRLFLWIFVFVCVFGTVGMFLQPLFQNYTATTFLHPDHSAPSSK

SMILES | IC50 (serotonin transporter) [nM] | IC50 [1] [nM] | IC50 [2] [nM] | IC50 [1, 3] [nM]
CN1C2CCC1CN(c1ccc3ccccc3n1)CC2 (racemic) [Compound 2, (±) 3-(2-Quinolinyl)-9-methyl-3,9-diazabicyclo-[4.2.1]-nonane] | 13 | – | – | –
Cc1ccccc1-c1ccc(N2CCC3CCC(C2)N3C)cn1 (racemic) [Compound F1, (±) 3-[6-(2-Toluyl)-3-pyridyl]-9-methyl-3,9-diazabicyclo-[4.2.1]-nonane] | – | 99 | 5500 | –
CN1C2CCC1CN(c1cncc(OCCOc3cncc(N4CCC5CCC(C4)N5C)c3)c1)CC2 (racemic) [Compound B7, (±) O,O′-bis-[5-(9-Methyl-3,9-diazabicyclo-[4.2.1]-nonan-3-yl)-3-pyridyl]-ethyleneglycol] | – | 13 | > 10000 | –
c1ccc2ncc(N3CCC4CCC(C3)N4)cc2c1 (racemic) [Compound B5, (±) 3-(3-Quinolinyl)-9-H-3,9-diazabicyclo-[4.2.1]-nonane] | 49 | – | – | –
CN1C2CCC1CN(c1ccc(-c3ccccc3)nn1)CC2 (racemic) [Compound C2, (±) 3-(6-Phenyl-3-pyridazinyl)-9-methyl-3,9-diazabicyclo-[4.2.1]-nonane] | – | – | 410 | > 10000
CN1C2CCC1CN(c1ccc3ccccc3c1)CC2 (racemic) [Compound 1, (±) 3-(2-Naphthalyl)-9-methyl-3,9-diazabicyclo-[4.2.1]-nonane] | 40 | – | – | –
CN1CCC2CCC(C1)N2c1ccc(-c2ccccc2)nn1 (racemic) [Compound F10, (±) 3-Methyl-9-(6-phenyl-3-pyridazinyl)-3,9-diazabicyclo-[4.2.1]-nonane] | – | – | 800 | 27000
CN1C2CCC1CN(c1ccc(Cl)c(Cl)c1)CC2 (racemic) [Compound A1, (±) 3-(3,4-Dichlorophenyl)-9-methyl-3,9-diazabicyclo-[4.2.1]-nonane] | 32 | – | – | –
CN1C2CCC1CN(c1ccc(-c3ccsc3)nc1)CC2 (racemic) [Compound F5, (±) 3-[6-(3-Thienyl)-3-pyridyl]-9-methyl-3,9-diazabicyclo-[4.2.1]-nonane] | – | – | 280 | 1500
CN1C2CCC1CN(c1ccc3cc([N+](=O)[O-])ccc3n1)CC2 (racemic) [Compound C3, (±) 3-(6-Nitro-2-quinolinyl)-9-methyl-3,9-diazabicyclo-[4.2.1]-nonane] | 3.7 | – | – | –
